Test results as given in patent US10327447B2, “Phosphonate functional antimicrobial coatings for metal surfaces” (NANO SAFE COATINGS INCORPORATED, priority 2013, dated 2019).

What was measured:
Escherichia coli [1] = assay: Contact killing on treated stainless steel coupons (large droplet inoculation); format: cell-based; conditions: for change in colony forming units (cfu): in as little as four hours
Pseudomonas sp. CT07 = assay: as above; format: cell-based; conditions: in as little as four hours
Staphylococcus aureus [2] = assay: as above; format: cell-based; conditions: in as little as four hours
Klebsiella pneumonia = assay: as above; format: cell-based; conditions: in as little as four hours
Listeria monocytogenes [3] = assay: as above; format: cell-based
Salmonella = assay: Contact killing on treated titanium coupons; format: cell-based; conditions: after three hours of drying on the titanium surface
Method: (§1) A one inch by inch TiO2 square was sanded with 600 grain size sand paper, followed by an ethanol (EtOH) rinse. Samples were stored in a 120° C. oven prior to use. A 10 mM solution of compound 3 in EtOH was aerosol spayed onto the TiO2 square, allowed to air dry and placed into 120° C. oven overnight to anneal the compound followed by an EtOH rinse. Spaying, annealing and rinsing were repeated two more times.
(§2) The following bacteria were tested: Pseudomonas sp. CT07, Salmonella enteriditis, Klebsiella pneumonia, Listeria monocytogenes, Arthrobacter, Staphylococcus aureus, Pseudomonas aeruginosa PA01 and Escherichia coli. The preparation of the inoculant was performed by growing overnight cultures (10^5-10^8 cfu/ml) in 10% tryptic soy broth at room temperature and with agitation. The cells were then washed from the broth by using a centrifuge at 9000×g for 2 minutes. This step was performed to remove a nutrition source for the bacteria during the test phase.
(§3) Stainless steel coupons were treated by overnight immersion in a 1% ethanolic solution (aqueous solutions may also be used) of antimicrobial phosphonate and an overnight cure at 100° C. Untreated control (“C”), compound 2 (“S1”), compound 3 (“S2”) and Bio-Protect® AM500 silicone quaternary ammonium salt (N-(3-(trimethoxy)silylpropyl)-N,N-dimethyloctadecan-1-ammonium chloride) treated (“BSC”) stainless steel coupons were then inoculated with 0.1 mL of the overnight bacterial inoculant and were then placed in a fumehood to allow the samples to dry for 2 hours. After the appropriate time lapse the coupons were then placed into a 10 mL tube of sterile 0.9% saline and vigorously vortexed for a minute to remove the adherent cells. A dilution series was made from this solution and the series was plated onto 10% tryptic soy agar plates for enumeration. This was again repeated after 4 hours, 6 hours and 24 hours of drying.
(§4) Titanium metal coupons were treated similarly as above and tested for antibacterial activity against Salmonella and S. aureus.

S. aureus = assay: Contact killing on treated titanium coupons; format: cell-based; conditions: after three hours of drying on the titanium surface
Method: as §1, §2, §3, §4

Pseudomonas PA01 = assay: Contact killing on treated stainless steel coupons (large droplet inoculation); format: cell-based, Pseudomonas aeruginosa PA01; conditions: in as little as four hours
Salmonella enteriditis = assay: as above; format: cell-based; conditions: in as little as four hours
Arthrobacter [4] = assay: as above; format: cell-based; conditions: in as little as four hours
Staphylococcus aureus [5] = assay: Minimum inhibitory concentration determination; format: cell-based
Source text: Test organisms included gram-positive and gram-negative bacterial strains: Staphylococcus aureus, Listeria monocytogenes, Salmonella interiditis, and Escherichia coli.

Escherichia coli [6] = assay: Minimum inhibitory concentration determination; format: cell-based; conditions: 1% stock solution in H2O, stabilized or no stabilizer
Method: (§5) Solutions of phosphonate antimicrobials (0.01 g/mL or 1%) were dissolved in H2O or ethanol, inoculated with the test organism and serially diluted from 10^−1-10^−3, representing a dilution range from 0.01 g/mL to 0.00001 g/mL, followed by plate counts to determine the minimum inhibitory concentration (MIC) values. Test organisms included gram-positive and gram-negative bacterial strains: Staphylococcus aureus, Listeria monocytogenes, Salmonella interiditis, and Escherichia coli.
(§6) Sample 1 was a 1% solution of compound 3; sample 2 was 1% solution of the sodium salt of compound 3; sample 3 was a 1% solution of compound 3 prepared by HCl dealkylation of N-(3-diisopropoxyphosphorylpropyl)-N,N-dimethyloctadecan-1-ammonium bromide.

Salmonella interiditis = assay: Minimum inhibitory concentration determination; format: cell-based; conditions: 1% stock solution in H2O, stabilized or no stabilizer
Method: as §5, §6

Listeria monocytogenes [7] = assay: Minimum inhibitory concentration determination; format: cell-based; conditions: 1% stock solution in H2O, stabilized or no stabilizer
Method: as §5, §6

bacterial strains = conditions: strain not stated; cited from earlier work
Arthrobacter [8] = assay: Antimicrobial surface treatment durability (retest after saline storage); format: cell-based; conditions: treated titanium coupons stored in saline for 24 hours, washed, dried, re-innoculated
Method: Titanium metal coupons treated with compound 2 as in Example 28 were further tested for surface treatment durability. The treated coupons were stored in saline for 24 hours from the first antimicrobial trial, removed, dried, washed with distilled H2O, dried re-innoculated with Arthrobacter and retested.

P. aeroguinosa = assay: Agar testing of treated titanium coupons; format: cell-based; conditions: titanium coupons affixed to agar petri dishes; control fully colonized
Source text: The titanium coupon samples were subjected to agar testing in which the samples were affixed to agar petri dishes and inoculated with P. aeroguinosa.

SMILES	melting point	change in colony forming units (cfu) (Escherichia coli [1])	change in colony forming units (cfu) (Pseudomonas sp. CT07)	change in colony forming units (cfu) (Staphylococcus aureus [2])	change in colony forming units (cfu) (Klebsiella pneumonia)	antibacterial activity compared to BSC (Listeria monocytogenes [3])	bacterial colonies (cfu) on treated titanium surface (Salmonella)	bacterial colonies (cfu) on treated titanium surface (S. aureus)	change in colony forming units (cfu) (Pseudomonas PA01)	change in colony forming units (cfu) (Salmonella enteriditis)	change in colony forming units (cfu) (Arthrobacter [4])	also measured
CCCCCCCCCCCCCCCCCC[N+](C)(C)CCCP(=O)(OC(C)C)OC(C)C.[Br-]	54 to 55 °C	–	–	–	–	–	–	–	–	–	–	–
CCCCCCCCCCCCCCCCCC[N+](C)(C)CCCP(=O)(O)O [compound 3, N-(3-phosphonopropyl)-N,N-dimethyloctadecan-1-ammonium Bromide]	118 to 120 °C	eradication	eradication	eradication	eradication	comparable antibacterial activity	eradication	eradication	eradication	eradication	eradication	–
CCCCCCCCCCCCCCCCCC[N+](C)(C)CCC[Si](OC)(OC)OC.[Cl-] [BSC, N-(3-(trimethoxy)silylpropyl)-N,N-dimethyloctadecan-1-ammonium chloride]	–	–	–	–	–	–	–	–	–	–	–	time to eradication compared to the four hours of S1/S2 (Escherichia coli [1]): took longer; concentration at which strain was inhibited (Staphylococcus aureus [5]; 1% stock solution in H2O, stabilized or no stabilizer): ≤ 100 µg/mL; concentration at which strain was inhibited (Escherichia coli [6]): ≤ 100 µg/mL; concentration at which strain was inhibited (Salmonella interiditis): ≤ 100 µg/mL; concentration at which strain was inhibited (Listeria monocytogenes [7]): ≤ 100 µg/mL; literature MIC values (bacterial strains): 84 µg/mL
CCCCCCCCCCCCCCCCCC[N+](C)(C)CCCP(=O)(OCC)OCC.[Br-] [compound 2, N-(3-diethoxyphosphorylpropyl)-N,N-dimethyloctadecan-1-ammonium Bromide]	–	eradication	eradication	eradication	eradication	comparable antibacterial activity	significant reduction of bacterial colonies	significant reduction of bacterial colonies	eradication	eradication	eradication	colony reductions (Arthrobacter [8]): 10^6 to 0; inhibition of S. aureus (Staphylococcus aureus [5]; 1% solution, even at 100 μg/mL concentrations): highly inhibitory; visible colonies around or on the samples (P. aeroguinosa): no visible colonies; change in colony forming units (cfu) (Listeria monocytogenes [3]; after 24 hours): completely eradicated
